Data as given in ChEMBL document CHEMBL1156784, “The permeation of amphoteric drugs through artificial membranes--an in combo absorption model based on paracellular and transmembrane permeability” (J Med Chem, 2010).

Assays:
[1] = species on record: Homo sapiens; experiment: Clearance in human assessed as liver blood flow; format: ADME, organism-based; settings: in vivo
[2] = Permeability at pH 6.5 by PAMPA method
[3] = Oral bioavailability in human; settings: in vivo
[4] = Octanol-water partition coefficient, log P of the compound

Row | Structure (SMILES) | LBF [1] [%] | Papp [2] [×10⁻⁶ cm/s] | bioavailability [3] [%] | permeability [2] [×10⁻⁶ cm/s] | logP [4]
1 | N[C@@H](Cc1ccc(N(CCCl)CCCl)cc1)C(=O)O | 30 | 84 | – | – | –
2 | CC1(C)S[C@@H]2[C@H](/N=C/N3CCCCCC3)C(=O)N2[C@H]1C(=O)O [AMDINOCILLIN] | – | 0.9 | 10 | – | –
3 | CC(C)(O/N=C(\C(=O)N[C@@H]1C(=O)N2C(C(=O)[O-])=C(C[n+]3ccccc3)CS[C@H]12)c1csc(N)n1)C(=O)O [CEFTAZIDIME] | – | 0.2 | 0 | – | –
4 | CN(C)[C@@H]1C(O)=C(C(N)=O)C(=O)[C@@]2(O)C(O)=C3C(=O)c4c(O)ccc(Cl)c4[C@@](C)(O)[C@H]3C[C@@H]12 [CHLORTETRACYCLINE] | – | 3.7 | 60 | – | –
5 | CN(C)[C@@H]1C(O)=C(C(N)=O)C(=O)[C@@]2(O)C(O)=C3C(=O)c4c(O)ccc(Cl)c4[C@@H](O)[C@H]3C[C@@H]12 [DEMECLOCYCLINE] | – | 3.8 | 66 | – | –
6 | CCn1cc(C(=O)O)c(=O)c2cc(F)c(N3CCNCC3)nc21 [ENOXACIN] | – | 7.7 | 89 | – | –
7 | COc1c(N2CCNC(C)C2)c(F)cc2c(=O)c(C(=O)O)cn(C3CC3)c12 (stereo unspecified) [GATIFLOXACIN] | – | 20 | – | – | –
8 | C[N+](C)(C)C[C@H](O)CC(=O)[O-] [LEVOCARNITINE] | – | 1.3 | 10 | – | –
9 | NCCCC[C@H](N[C@@H](CCc1ccccc1)C(=O)O)C(=O)N1CCC[C@H]1C(=O)O [LISINOPRIL ANHYDROUS] | – | – | 25 | – | –
10 | CCn1cc(C(=O)O)c(=O)c2cc(F)c(N3CCNC(C)C3)c(F)c21 (stereo unspecified) [LOMEFLOXACIN] | – | – | 97 | 15 | –
11 | CN(C)c1ccc(O)c2c1C[C@H]1C[C@H]3[C@H](N(C)C)C(O)=C(C(N)=O)C(=O)[C@@]3(O)C(O)=C1C2=O [MINOCYCLINE] | – | 50 | 100 | – | –
12 | CC1COc2c(N3CCN(C)CC3)c(F)cc3c(=O)c(C(=O)O)cn1c23 (stereo unspecified) [OFLOXACIN] | – | – | 90 | – | –
13 | CCn1cc(C(=O)O)c(=O)c2cc(F)c(N3CCN(C)CC3)cc21 [PEFLOXACIN] | – | – | 95 | – | –
14 | C[C@@H]1CN(c2c(F)c(N)c3c(=O)c(C(=O)O)cn(C4CC4)c3c2F)C[C@H](C)N1 [SPARFLOXACIN] | – | 42 | 92 | – | –
15 | CC(C)(C)NCC(O)c1cc(O)cc(O)c1 (stereo unspecified) [TERBUTALINE] | – | 1.4 | 14 | – | –

Results, then the compound that gave them:

Row | LBF [1] [%] | Papp [2] [×10⁻⁶ cm/s] | bioavailability [3] [%] | permeability [2] [×10⁻⁶ cm/s] | logP [4] | Structure (SMILES)
16 | – | 0.8 | – | – | – | Nc1nc2c(ncn2COCCO)c(=O)[nH]1 [ACYCLOVIR]
17 | – | 17 | 37 | – | – | CCOC(=O)[C@H](CCc1ccccc1)N[C@H]1CCc2ccccc2N(CC(=O)O)C1=O [BENAZEPRIL]
18 | 10 | – | 60 | – | – | COCc1c(C(C)C)nc(C(C)C)c(/C=C/[C@@H](O)C[C@@H](O)CC(=O)O)c1-c1ccc(F)cc1 [CERIVASTATIN]
19 | – | 0.3 | 0 | – | – | COc1cccc2c1C(=O)c1c(O)c3c(c(O)c1C2=O)C[C@@](O)(C(C)=O)C[C@@H]3O[C@H]1C[C@H](N)[C@H](O)[C@H](C)O1 [DAUNORUBICIN]
20 | – | 20 | – | – | – | C[C@H]1c2cccc(O)c2C(=O)C2=C(O)[C@]3(O)C(=O)C(C(N)=O)=C(O)[C@@H](N(C)C)[C@@H]3[C@@H](O)[C@@H]21.O [DOXYCYCLINE]
21 | 16 | 0.6 | 42 | – | – | NC(N)=Nc1nc(CSCCC(N)=NS(N)(=O)=O)cs1 [FAMOTIDINE]
22 | – | – | 7.3 | – | – | Nc1nc(O)c2ncn(COC(CO)CO)c2n1 [GANCICLOVIR]
23 | – | – | 89 | – | – | Cc1cnc(NC(=O)C2=C(O)c3ccccc3S(=O)(=O)N2C)s1 [MELOXICAM]
24 | – | 0.9 | 28 | – | – | Nc1ccc(O)c(C(=O)O)c1 [MESALAMINE]
25 | – | 20 | – | – | – | CN1C(C(=O)Nc2ccccn2)=C(O)c2ccccc2S1(=O)=O [PIROXICAM]
26 | – | 1.2 | 100 | – | -0.08 | Nc1ccc(S(=O)(=O)Nc2ncccn2)cc1 [SULFADIAZINE]
27 | – | 3.8 | 78 | – | – | CN(C)[C@@H]1C(O)=C(C(N)=O)C(=O)[C@@]2(O)C(O)=C3C(=O)c4c(O)cccc4[C@@](C)(O)[C@H]3C[C@@H]12 [TETRACYCLINE]
28 | – | 22 | 80 | – | – | Cc1cccc(Nc2ccncc2S(=O)(=O)NC(=O)NC(C)C)c1 [TORSEMIDE]
29 | – | 57 | 88 | – | – | N[C@@H]1[C@H]2CN(c3nc4c(cc3F)c(=O)c(C(=O)O)cn4-c3ccc(F)cc3F)C[C@@H]12 [TROVAFLOXACIN]
